Columns and labels:
tubulin [1] = assay: Inhibition of the polymerisation of tubulin (UV, 350 nm); assay type: biochemical, pigs; settings: for I50/I50 vinblastine: tartrates, tubulin concentration ~ 2 mg/ml, ratio to vinblastine
From the text: (§1) The receiver of anti-tumoral indolic alkaloids of the vinblastine type is tubulin.
(§2) It is readily extracted from pigs' brains where it preresents 10% of the soluble proteins.
(§3) The polymerisation of tubulin into microtubules may readily be followed by means of a UV spectrophotometer observing at 350 nm. The maximum polymerisation velocity is thus determined; it is reduced by the addition of inhibitors of the vinblastine type and a concentration, I50, reducing the polymerisation velocity by half is obtained for each substance tested. A second effect of these products is taken into consideration: with higher doses, after complete inhibition of polymerisation, spiralisation of the tubulin is observed (verified by electron microscopy) and a new concentration, S50, corresponding to the appearance of 50% of the phenomenon is determined.
(§4) The results of each product are always compared with those of the vinblastine used as reference.
(§5) The results of the interaction tests with
(§6) tubulin carried out on the tartrates are summarised
(§7) in the following Table (tubulin concentration
(a) I50 : concentration of the product inhibiting 50% of the velocit
of polymerisation of the tubulin. I50 vinblastine = 2,10^-6.

tubulin [2] = assay: Spiralisation of tubulin (S50); assay type: biochemical, pigs; settings: for S50/S50 vinblastine: tartrates, tubulin concentration ~ 2 mg/ml, ratio to vinblastine
From the text: as §1, §2, §3, §4, §5, §6, §7
(b) S50 : concentration of the product required for inducing 50% of
the maximum spiralisation of the tubulin.

P388 leukaemia = assay: Activity in the P388 leukaemia test on mice; assay type: in vivo, mice (DBA/2 female); settings: tartrate; for ratio of T and C (formula drawing 15): C = average life of treated, control group; for Mean survival period: control 10.5 ± 0.8
Method: Table II below exemplifies the results obtained with the compound of Example 1 in the form of its tartrate in the treatment of P388 leukaemia.
T=average life (in days) of the mice of the treated group
C=average life (in days) of the mice of the control group
Graft: P 388 (10^6 cell./mice ip)
(§8) Graft→treatment interval: 24 h.

L1210 leukaemia = assay: Activity in the L1210 leukaemia test on mice; assay type: in vivo, mice (DBA/2 female); settings: tartrate
Method: Table III below summarises the results obtained with the compound of Example 1 in the form of its tartrate in the treatment of L1210 leukaemia:
as §8
Conc. 0.5 and 1 mg/ml in physiological serum.

[3] = Toxicity of the product of Example 1 in tartrate form, single dose, mortality over 35 days; assay type: in vivo, DBA/2 female mice; settings: for Distribution of mortality, 1: column 1 (day); for Distribution of mortality, 6: column 6 (day); for Distribution of mortality, 3: column 3 (day)
From the text: A single dose of the test product is intraperitoneally administered to DBA/2 .female. mice and the mortality rate studied over a period of 35 days.

leukaemia studied = assay: Leukaemia tests on mice, overall conclusion; assay type: in vivo; settings: in words, compared with vincristine and vinblastine
From the text: (2) Activity in the P388 leukaemia test on mice
(3) Activity in the L1210 leukaemia test on mice

[4] = comparison value, cited from earlier work; for DL50: i.v.

What does the source list for `CCC12CN3Cc4c([nH]c5ccccc45)[C@@](C(=O)OC)(c4cc5c(cc4OC)N(C=O)[C@H]4[C@@](O)(C(=O)OC)[C@H](OC(C)=O)[C@]6(CC)C=CCN7CC[C@]54[C@@H]76)C[C@@H](C3)C1O2` (stereo partly shown) [5'-nor-Na-desmethyl Na-formyl leurosine]?
I50/I50 vinblastine (tubulin [1]): 2.77; S50/S50 vinblastine (tubulin [2]): 2.5

What does the source list for `CCC1=C[C@@H]2CN(C1)Cc1c([nH]c3ccccc13)[C@@](C(=O)OC)(c1cc3c(cc1OC)N(C)[C@H]1[C@@](O)(C(=O)OC)[C@H](OC(C)=O)[C@]4(CC)C=CCN5CC[C@]31[C@@H]54)C2` [5'-noranhydrovinblastine]?
activity in regard to the inhibition of polymerisation (tubulin [1]; in words, compared with vinblastine): activity similar to vinblastine; I50/I50 vinblastine (tubulin [1]): 0.7; "spiralising" activity (tubulin [2]; in words): does not have any "spiralising" activity; S50/S50 vinblastine (tubulin [2]): 0.8-1.0; I.L.S. (formula drawing 14) (P388 leukaemia; 5 mg/kg i.p.): 29.5; ratio of T and C (formula drawing 15) (P388 leukaemia; 5 mg/kg i.p.): 129.5; Mean survival period (P388 leukaemia; 5 mg/kg i.p.): 13.6 ± 0.8 days; I.L.S. (formula drawing 14) (P388 leukaemia; 10 mg/kg i.p.): 70.5; ratio of T and C (formula drawing 15) (P388 leukaemia; 10 mg/kg i.p.): 170.5; Mean survival period (P388 leukaemia; 10 mg/kg i.p.): 17.9 ± 0.9 days; I.L.S. (formula drawing 14) (P388 leukaemia; 25 mg/kg i.p.): ≥ 131.4; ratio of T and C (formula drawing 15) (P388 leukaemia; 25 mg/kg i.p.): ≥ 231.4; Mean survival period (P388 leukaemia; 25 mg/kg i.p.): ≥ 24.3 days; I.L.S. (formula drawing 16) (L1210 leukaemia; 5 mg/kg i.p.): 40; ratio (formula drawing 17) (L1210 leukaemia; 5 mg/kg i.p.): 140; Mean survival period (L1210 leukaemia; 5 mg/kg i.p., control 8.6 ± 0.4): 12.0 ± 0.9 days; I.L.S. (formula drawing 16) (L1210 leukaemia; 10 mg/kg i.p., first line): 57; Mean survival period (L1210 leukaemia; 10 mg/kg i.p., first line, control 8.6 ± 0.4): 13.5 ± 0.9 days; ratio (formula drawing 17) (L1210 leukaemia; 10 mg/kg i.p., first value): 157; I.L.S. (formula drawing 16) (L1210 leukaemia; 10 mg/kg i.p., second line): 50; Mean survival period (L1210 leukaemia; 10 mg/kg i.p., second line, control 8.6 ± 0.7): 12.9 ± 1.3 days; ratio (formula drawing 17) (L1210 leukaemia; 10 mg/kg i.p., second value): 150; I.L.S. (formula drawing 16) (L1210 leukaemia; 25 mg/kg i.p., first line): 65; Mean survival period (L1210 leukaemia; 25 mg/kg i.p., first line, control 8.6 ± 0.4): 14.2 days; ratio (formula drawing 17) (L1210 leukaemia; 25 mg/kg i.p., first value): 165; I.L.S. (formula drawing 16) (L1210 leukaemia; 25 mg/kg i.p., second line): 57; Mean survival period (L1210 leukaemia; 25 mg/kg i.p., second line, control 8.6 ± 0.7): 13.5 days; ratio (formula drawing 17) (L1210 leukaemia; 25 mg/kg i.p., second value): 157; Distribution of mortality, 1 ([3]; 50 mg/kg i.p.): 1; Distribution of mortality, 4 ([3]; 50 mg/kg i.p., column 4 (day)): 1; Distribution of mortality, 6 ([3]; 50 mg/kg i.p.): 1; Distribution of mortality, 9 ([3]; 50 mg/kg i.p., column 9 (day)): 1; Mortality over 35 days ([3]; 50 mg/kg single i.p. dose, tartrate, 5 mice): 4/5; Distribution of mortality, 1 ([3]; 75 mg/kg i.p.): 3; Distribution of mortality, 3 ([3]; 75 mg/kg i.p.): 1; Distribution of mortality, 6 ([3]; 75 mg/kg i.p.): 1; Distribution of mortality, 3 ([3]; 100 mg/kg i.p.): 3; Mortality over 35 days ([3]; 100 mg/kg single i.p. dose, tartrate, 3 mice): 3/3; toxicity compared with vincristine and vinblastine ([3]; in words): far less toxic; mortality at 840 h ([3]; mouse, in vivo, ip, 25 mg/kg single i.p. dose, tartrate, 5 mice): 0%; DL0 ([3]; single i.p. dose, tartrate, DBA/2 female mice, 35 days): 25 mg/kg; activity on the leukaemia studied (leukaemia studied): more active than vincristine and vinblastine

With `CCC1=C[C@@H]2CN(C1)Cc1c([nH]c3ccccc13)[C@@](C(=O)OC)(c1cc3c(cc1OC)N(C=O)[C@H]1[C@@](O)(C(=O)OC)[C@H](OC(C)=O)[C@]4(CC)C=CCN5CC[C@]31[C@@H]54)C2` [5'-noranhydrovincristine] as the compound, how does the I50/I50 vinblastine (tubulin [1]) read?
Its I50/I50 vinblastine is 0.8.

What about the S50/S50 vinblastine (tubulin [2]) of the same compound?
Its S50/S50 vinblastine is 0.66.

With `CCC12CN3Cc4c([nH]c5ccccc45)[C@@](C(=O)OC)(c4cc5c(cc4OC)N(C)[C@H]4[C@@](O)(C(=O)OC)[C@H](OC(C)=O)[C@]6(CC)C=CCN7CC[C@]54[C@@H]76)C[C@@H](C3)C1O2` (stereo partly shown) [5'-norleurosine] as the compound, how does the I50/I50 vinblastine (tubulin [1]) read?
The I50/I50 vinblastine was 1.0.

And the S50/S50 vinblastine (tubulin [2])?
Its S50/S50 vinblastine is 3.

With `CCC1=C[C@@H]2CN(C1)Cc1c([nH]c3ccccc13)[C@@](C(=O)OC)(c1cc3c(c(Cl)c1OC)N(C)[C@H]1[C@@](O)(C(=O)OC)[C@H](OC(C)=O)[C@]4(CC)C=CCN5CC[C@]31[C@@H]54)C2` [12-chloro-5'-noranhydrovinblastine] as the compound, how does the I50/I50 vinblastine (tubulin [1]) read?
Its I50/I50 vinblastine is 13.

Which I50/I50 vinblastine (tubulin [1]) does the source give for `CCC1=C[C@@H]2CN(CCc3c([nH]c4ccccc34)[C@@](C(=O)OC)(c3cc4c(cc3OC)N(C=O)[C@H]3[C@@](O)(C(=O)OC)[C@H](OC(C)=O)[C@]5(CC)C=CCN6CC[C@]43[C@@H]65)C2)C1` [anhydrovincristine, reference compound] here?
The I50/I50 vinblastine was 1.8.

What about the S50/S50 vinblastine (tubulin [2]) of the same compound?
Its S50/S50 vinblastine is 1.5.

For `CC[C@]1(O)C[C@@H]2CN(CCc3c([nH]c4ccccc34)[C@@](C(=O)OC)(c3cc4c(cc3OC)N(C)[C@H]3[C@@](O)(C(=O)OC)[C@H](OC(C)=O)[C@]5(CC)C=CCN6CC[C@]43[C@@H]65)C2)C1` [vinblastine, reference compound], which IC50 (tubulin [1]; reference vinblastine, unit inferred, read-out: I50: concentration of the product inhibiting 50% of the velocity of polymerisation of the tubulin (converted)) is on record?
The IC50 was […].

What about the DL50 [4] of the same compound?
The DL50 was 17 mg/kg.

Which DL10 ([4]; route not given) does the source give for `CC[C@]1(O)C[C@H]2CN(CCc3c([nH]c4ccccc34)[C@@](C(=O)OC)(c3cc4c(cc3OC)N(C=O)[C@H]3[C@@](O)(C(=O)OC)[C@H](OC(C)=O)[C@]5(CC)C=CCN6CC[C@]43[C@@H]65)C2)C1` [vincristine] here?
The DL10 was 3 mg/kg.

What about the DL50 [4] of the same compound?
Its DL50 is 2 mg/kg.
